Results from patent publication US9512107B2, “Therapeutically active compositions and their methods of use” (Agios Pharmaceuticals, Inc., priority 2012, dated 2016).

Tests used:
IDH2 R140Q = molecular target: T1, IDH2 R140Q (Homo sapiens, UniProt P48735, R140Q); test: IDH2 R140Q enzymatic assay (cofactor depletion, similar format); format: biochemical; settings: read-out: Enz R140Q
T1 sequence (P48735 40-452 R140Q): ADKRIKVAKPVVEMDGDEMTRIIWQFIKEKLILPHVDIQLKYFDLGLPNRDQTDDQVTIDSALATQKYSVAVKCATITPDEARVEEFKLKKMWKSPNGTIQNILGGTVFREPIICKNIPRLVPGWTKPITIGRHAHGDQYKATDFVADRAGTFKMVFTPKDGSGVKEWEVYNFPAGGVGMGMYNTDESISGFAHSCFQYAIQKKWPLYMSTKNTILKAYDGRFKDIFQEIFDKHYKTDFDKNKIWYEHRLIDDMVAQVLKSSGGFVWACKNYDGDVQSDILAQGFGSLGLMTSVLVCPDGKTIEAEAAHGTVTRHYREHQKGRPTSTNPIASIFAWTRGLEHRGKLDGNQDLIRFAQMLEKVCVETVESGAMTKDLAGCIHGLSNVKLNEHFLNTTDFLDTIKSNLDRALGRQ
Description: [The source words this procedure for another variant and says it was used here with some conditions changed.] Compounds are assayed for IDH2 R172K inhibitory activity through a cofactor depletion assay. […] The reaction is terminated by the addition of a second enzyme, diaphorase, and a corresponding substrate, resazurin. Diaphorase reduces resazurin to the highly fluorescent resorufin with the concomitant oxidation of NADPH to NADP, both halting the IDH2 reaction by depleting the available cofactor pool and facilitating quantitation of the amount of cofactor remaining after a specific time period through quantitative production of an easily detected fluorophore.
The test compound is then incubated for one hour at room temperature with the enzyme; before starting the IDH2 reaction with the addition of 10 μl of substrate mix containing 50 μM NADPH and 6.3 mM α-KG in the buffer described above. After a further one hour of incubation at room temperature, the reaction is halted and the remaining NADPH measured through conversion of resazurin to resorufin by the addition of 25 μl Stop Mix (36 μg/ml diaphorase enzyme and 60 μM resazurin; in buffer).

[1] = tested on: U87MG pLVX-IDH2 R140Q-neo cells; test: U87MG pLVX-IDH2 R140Q-neo cell based assay, 2-HG in media by LC-MS at 48 hours; settings: for IC50: Homo sapiens, U-87 MG
Description: U87MG pLVX-IDH2 R140Q-neo cells are grown in T125 flasks in DMEM containing 10% FBS, 1× penicillin/streptomycin and 500 μg/mL G418. They are harvested by trypsin and seeded into 96 well white bottom plates at a density of 5000 cell/well in 100 μl/well in DMEM with 10% FBS. No cells are plated in columns 1 and 12. Cells are incubated overnight at 37° C. in 5% CO2. The next day compounds are made up at 2× concentration and 100 ul are added to each cell well. The final concentration of DMSO is 0.2% and the DMSO control wells are plated in row G. The plates are then placed in the incubator for 48 hours. At 48 hours, 100 ul of media is removed from each well and analyzed by LC-MS for 2-HG concentrations. The cell plate is placed back in the incubator for another 24 hours. At 72 hours post compound addition, 10 mL/plate of Promega Cell Titer Glo reagent is thawed and mixed. The cell plate is removed from the incubator and allowed to equilibrate to room temperature. Then 100 ul of reagent is added to each well of media. The cell plate is then placed on an orbital shaker for 10 minutes and then allowed to sit at room temperature for 20 minutes. The plate is then read for luminescence with an integration time of 500 ms to determine compound effects on growth inhibition.

IC50 (IDH2 R140Q)	IC50 [1]	Compound	Cell R140Q [1]
100 to 1000 nM	< 100 nM	CC(C)Nc1nc(Nc2cncnc2)nc(-c2cccc(Cl)n2)n1 [Compound 353, 6-(6-chloropyridin-2-yl)-N^2-isopropyl-N^4-(pyrimidin-5-yl)-1,3,5-triazine-2,4-diamine]	–
100 to 1000 nM	< 100 nM	CC(C)Nc1nc(Nc2ccnc(Cl)c2)nc(-c2cccc(Cl)n2)n1 [Compound 354, 6-(6-chloropyridin-2-yl)-N^2-(2-chloropyridin-4-yl)-N^4-isopropyl-1,3,5-triazine-2,4-diamine]	–
100 to 1000 nM	< 100 nM	CC(C)Nc1nc(Nc2ccnc(C#N)c2)nc(-c2cccc(Cl)n2)n1 [Compound 355, 4-(4-(6-chloropyridin-2-yl)-6-(isopropylamino)-1,3,5-triazin-2-ylamino)picolinonitrile]	–
100 to 1000 nM	< 100 nM	FC(F)(F)c1cc(Nc2nc(NC3COC3)nc(-c3cccc(Cl)n3)n2)ccn1 [Compound 356, 6-(6-Chloro-pyridin-2-yl)-N-oxetan-3-yl-N′-(2-trifluoromethyl-pyridin-4-yl)-[1,3,5]triazine-2,4-diamine]	–
100 to 1000 nM	100 to 1000 nM	Cc1cccc(-c2nc(Nc3cccc(S(C)(=O)=O)c3)nc(NC(C)C)n2)n1 [Compound 359, N^2-isopropyl-6-(6-methylpyridin-2-yl)-N^4-(3-(methylsulfonyl)phenyl)-1,3,5-triazine-2,4-diamine]	–
100 to 1000 nM	100 to 1000 nM	C#Cc1cccc(-c2nc(Nc3cccc(S(C)(=O)=O)c3)nc(NC(C)C)n2)n1 [Compound 360, 6-(6-ethynylpyridine-2-yl)-N^2-isopropyl-N^4-(3-(methylsulfonyl)phenyl)-1,3,5-triazine-2,4-diamine]	–
100 to 1000 nM	100 to 1000 nM	COc1cccc(-c2nc(Nc3cccc(S(C)(=O)=O)c3)nc(NC(C)C)n2)n1 [Compound 361, N^2-isopropyl-6-(6-methoxypyridin-2-yl)-N^4-(3-(methylsulfonyl)phenyl)-1,3,5-triazine-2,4-diamine]	–
100 to 1000 nM	100 to 1000 nM	O=C1C=C(Nc2nc(Nc3ccccc3)nc(-c3ccccc3)n2)CCC1 [Compound 362, 3-(4-phenyl-6-(phenylamino)-1,3,5-triazin-2-ylamino)cyclohex-2-enone]	–
100 to 1000 nM	< 100 nM	CC(C)(C)CNc1nc(Nc2ccc(F)nc2)nc(-c2ccccn2)n1 [Compound 363, N^2-(6-fluoropyridin-3-yl)-N^4-neopentyl-6-(pyridin-2-yl)-1,3,5-triazine-2,4-diamine]	–
1000 to 10000 nM	100 to 1000 nM	CNc1cccc(-c2nc(Nc3cccc(S(C)(=O)=O)c3)nc(NC(C)C)n2)n1 [Compound 364, N^2-isopropyl-6-(6-(methylamino)pyridin-2-yl)-N^4-(3-(methylsulfonyl)phenyl)-1,3,5-triazine-2,4-diamine]	–
100 to 1000 nM	< 100 nM	CC(C)Nc1nc(Nc2cccc(S(C)(=O)=O)c2)nc(-c2cccc(C(F)F)n2)n1 [Compound 366, 6-(6-(difluoromethyl)pyridin-2-yl)-N^2-isopropyl-N^4-(3-(methylsulfonyl)phenyl)-1,3,5-triazine-2,4-diamine]	–

Continued, molecule first:

Compound	IC50 (IDH2 R140Q)	IC50 [1]	Cell R140Q [1]
CC(C)CNc1nc(Nc2cncc(F)c2)nc(-c2ccccc2F)n1 [Compound 320, 6-(2-fluorophenyl)-N^2-(5-fluoropyridin-3-yl)-N^4-isobutyl-1,3,5-triazine-2,4-diamine]	< 100 nM	< 100 nM	–
CC(C)Nc1nc(Nc2cncc(C#N)c2)nc(-c2ccccc2F)n1 [Compound 321, 5-(4-(2-fluorophenyl)-6-(isopropylamino)-1,3,5-triazin-2-ylamino)nicotinonitrile]	< 100 nM	< 100 nM	–
Fc1cncc(Nc2nc(NC3CCC3)nc(-c3ccccn3)n2)c1 [Compound 322, N^2-cyclobutyl-N^4-(5-fluoropyridin-3-yl)-6-(pyridin-2-yl)-1,3,5-triazine-2,4-diamine]	100 to 1000 nM	< 100 nM	–
Fc1cncc(Nc2nc(NC3CCC3)nc(-c3cccc(Cl)n3)n2)c1 [Compound 323, 6-(6-chloropyridin-2-yl)-N^2-cyclobutyl-N^4-(5-fluoropyridin-3-yl)-1,3,5-triazine-2,4-diamine]	100 to 1000 nM	< 100 nM	–
CC(O)C(=O)Nc1nc(Nc2ccccc2)nc(-c2ccccc2)n1 (stereo not drawn) [Compound 324, 2-hydroxy-N-(4-phenyl-6-(phenylamino)-1,3,5-triazin-2-yl)propanamide]	100 to 1000 nM	1000 to 10000 nM	–
Fc1ccc(Nc2nc(NC3CCC3)nc(-c3cccc(Cl)n3)n2)cn1 [Compound 325, 6-(6-chloropyridin-2-yl)-N^2-cyclobutyl-N^4-(6-fluoropyridin-3-yl)-1,3,5-triazine-2,4-diamine]	< 100 nM	< 100 nM	–
CC(C)Nc1nc(Nc2cccc(S(C)(=O)=O)c2)nc(-c2cccc(Cl)n2)n1 [Compound 326, 6-(6-chloropyridin-2-yl)-N^2-isopropyl-N^4-(3-(methylsulfonyl)phenyl)-1,3,5-triazine-2,4-diamine]	100 to 1000 nM	< 100 nM	–
CC(C)Nc1nc(Nc2ccncc2)nc(-c2cccc(N)c2)n1 [Compound 327]	100 to 1000 nM	100 to 1000 nM	–
CC(C)Nc1nc(Nc2ccncc2)nc(-c2cccc(O)c2)n1 [Compound 328, 3-[4-Isopropylamino-6-(pyridin-4-ylamino)-[1,3,5]triazin-2-yl]-phenol]	< 100 nM	< 100 nM	–
CC(C)Nc1nc(Nc2cncc(C(F)(F)F)c2)nc(-c2ccccc2)n1 [Compound 329, N^2-isopropyl-6-phenyl-N^4-(5-(trifluoromethyl)pyridin-3-yl)-1,3,5-triazine-2,4-diamine]	< 100 nM	< 100 nM	–
Clc1cncc(Nc2nc(NC3CCC3)nc(-c3ccccn3)n2)c1 [Compound 330, N^2-(5-chloropyridin-3-yl)-N^4-cyclobutyl-6-(pyridin-2-yl)-1,3,5-triazine-2,4-diamine]	100 to 1000 nM	< 100 nM	–
CNc1cccc(-c2nc(Nc3ccccc3)nc(NC(C)C)n2)n1 [Compound 331, N^2-isopropyl-6-(6-(methylamino)pyridin-2-yl)-N^4-phenyl-1,3,5-triazine-2,4-diamine]	100 to 1000 nM	< 100 nM	–
CC(C)Nc1nc(Nc2cn(C)cn2)nc(-c2ccccc2)n1 [Compound 332, N^2-isopropyl-N^4-(1-methyl-1H-imidazol-4-yl)-6-phenyl-1,3,5-triazine-2,4-diamine]	> 10000 nM	–	No Fit
Cc1ncc(Nc2nc(NC(C)C)nc(-c3ccccc3)n2)cn1 [Compound 343, N^2-isopropyl-N^4-(2-methylpyrimidin-5-yl)-6-phenyl-1,3,5-triazine-2,4-diamine]	100 to 1000 nM	100 to 1000 nM	–
COC(=O)c1cc(Nc2nc(NC(C)C)nc(-c3ccccc3)n2)ccn1 [Compound 346]	< 100 nM	100 to 1000 nM	–
O[C@H]1CCC[C@H]1Nc1nc(Nc2ccccc2)nc(-c2ccccc2)n1 [Compound 352, (1S,2R)-2-(4-phenyl-6-(phenylamino)-1,3,5-triazin-2-ylamino)cyclopentanol]	< 100 nM	< 100 nM	–
